Each structure is given as a SMILES string.

The first assay deals with T1, purified human HDAC6 (Homo sapiens, UniProt Q9UBN7).
T1 construct: purchased BPS Bioscience 5006
T1 sequence (Q9UBN7 1-1215): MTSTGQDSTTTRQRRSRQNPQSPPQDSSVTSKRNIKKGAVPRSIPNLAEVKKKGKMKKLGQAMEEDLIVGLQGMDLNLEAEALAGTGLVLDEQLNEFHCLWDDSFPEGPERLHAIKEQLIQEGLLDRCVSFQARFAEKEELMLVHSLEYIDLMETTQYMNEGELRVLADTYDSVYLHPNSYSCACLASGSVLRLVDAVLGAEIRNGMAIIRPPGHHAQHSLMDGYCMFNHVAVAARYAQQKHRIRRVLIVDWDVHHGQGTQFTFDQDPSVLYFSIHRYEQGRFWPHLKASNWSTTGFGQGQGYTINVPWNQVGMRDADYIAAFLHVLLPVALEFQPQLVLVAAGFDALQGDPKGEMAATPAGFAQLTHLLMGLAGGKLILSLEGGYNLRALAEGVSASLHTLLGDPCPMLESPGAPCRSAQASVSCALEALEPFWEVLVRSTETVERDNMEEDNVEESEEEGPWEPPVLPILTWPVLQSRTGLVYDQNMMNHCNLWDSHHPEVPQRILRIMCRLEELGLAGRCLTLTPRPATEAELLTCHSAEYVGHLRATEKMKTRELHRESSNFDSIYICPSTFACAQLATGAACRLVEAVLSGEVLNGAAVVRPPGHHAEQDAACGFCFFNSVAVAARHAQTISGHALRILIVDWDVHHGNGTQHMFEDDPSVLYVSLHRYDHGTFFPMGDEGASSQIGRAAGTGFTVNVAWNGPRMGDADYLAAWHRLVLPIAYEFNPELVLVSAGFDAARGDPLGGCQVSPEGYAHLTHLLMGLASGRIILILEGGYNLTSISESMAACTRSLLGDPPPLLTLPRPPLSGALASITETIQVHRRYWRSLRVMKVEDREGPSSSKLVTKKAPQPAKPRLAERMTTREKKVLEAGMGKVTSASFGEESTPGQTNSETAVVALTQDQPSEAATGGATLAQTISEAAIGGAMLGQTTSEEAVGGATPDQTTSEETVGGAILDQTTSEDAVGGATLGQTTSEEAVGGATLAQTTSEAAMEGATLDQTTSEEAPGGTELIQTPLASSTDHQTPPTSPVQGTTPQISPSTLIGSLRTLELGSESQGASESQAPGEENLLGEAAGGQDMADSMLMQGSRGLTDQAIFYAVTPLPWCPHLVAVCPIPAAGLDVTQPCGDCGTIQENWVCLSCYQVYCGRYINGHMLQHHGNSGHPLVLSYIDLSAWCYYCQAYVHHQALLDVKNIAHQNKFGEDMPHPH
Description: HDAC6 Enzyme Assay. The class given is biochemical. As to conditions: compound concentration 0.37 μM, read-out: Percent Inhibition. Put shortly:
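Purified human HDAC6 incubated 1 h at 30° C with Ac-Arg-Gly-Lys(Ac)-AMC peptide plus compound or DMSO; stopped with trichostatin A. Deacetylated product trypsin-digested, released AMC read by fluorescence (Ex 340/Em 460 nm). Percent inhibition at one concentration or IC50 from curves relative to DMSO controls.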
In the case of `CC(C)(C)C(=O)Nc1ncccc1-c1cccc(Cn2cnc3ccc(C(=O)NO)cc3c2=O)c1` [Compound I-230, 3-(3-{2-[(2,2-dimethylpropanoyl)amino]pyridin-3-yl}benzyl)-N-hydroxy-4-oxo-3,4-dihydroquinazoline-6-carboxamide], the inhibition at 0.37 µM turned out to be 92.4%.
For `O=C(NO)c1ccc2c(=O)n(Cc3ccc(C(F)(F)F)cc3)c(-c3cnc(N4CCOCC4)s3)nc2c1` [Compound I-237, N-hydroxy-2-(2-morpholin-4-yl-1,3-thiazol-5-yl)-4-oxo-3-[4-(trifluoromethyl)benzyl]-3,4-dihydroquinazoline-7-carboxamide], the inhibition at 0.37 µM worked out at 88%.
For `CN(C)S(=O)(=O)c1cccc(-c2cccc(Cn3cnc4ccc(C(=O)NO)cc4c3=O)c2)c1` [Compound I-244, 3-({3′-[(dimethylamino)sulfonyl]biphenyl-3-yl}methyl)-N-hydroxy-4-oxo-3,4-dihydroquinazoline-6-carboxamide], the inhibition at 0.37 µM was found to be 89.4%.
Regarding `CC(C)(C)OC(=O)NCCCn1ccc2ccc(C(=O)NO)cc2c1=O` [Compound I-245, tert-butyl {3-[7-[(hydroxyamino)carbonyl]-1-oxoisoquinolin-2(1H)-yl]propyl}carbamate], the inhibition at 0.37 µM amounted to 94.5%.
The same measure, in the same setting: with `O=C(NO)c1ccc2ccn(-c3ccc(Cl)cc3)c(=O)c2c1` [Compound I-247, 2-(4-chlorophenyl)-N-hydroxy-1-oxo-1,2-dihydroisoquinoline-7-carboxamide] the figure was 93%; with `O=C(NO)c1ccc2ncn(Cc3cccc(-c4ccc(S(=O)(=O)N5CCCCC5)cc4)c3)c(=O)c2c1` [Compound I-254, N-hydroxy-4-oxo-3-{[4′-(piperidin-1-ylsulfonyl)biphenyl-3-yl]methyl}-3,4-dihydroquinazoline-6-carboxamide], 94%.

Still in this assay, the particulars now being: compound concentration 0.412 μM, read-out: Percent Inhibition.
Regarding `COCCOCCn1ccc2ccc(C(=O)NO)cc2c1=O` [Compound I-228, N-hydroxy-2-[2-(2-methoxyethoxy)ethyl]-1-oxo-1,2-dihydroisoquinoline-7-carboxamide], the inhibition at 0.412 µM came out at 86.9%.
Same read-out and setting: with `COc1ccc(N(CCn2ccc3ccc(C(=O)NO)cc3c2=O)Cc2ccc(Cl)cc2)cc1` [Compound I-229, 2-{2-[(4-chlorobenzyl)(4-methoxyphenyl)amino]ethyl}-N-hydroxy-1-oxo-1,2-dihydroisoquinoline-7-carboxamide] the figure was 83.2%; with `COc1ccc2ccc(OCCCn3ccc4ccc(C(=O)NO)cc4c3=O)cc2c1` [Compound I-231, N-hydroxy-2-{3-[(7-methoxy-2-naphthyl)oxy]propyl}-1-oxo-1,2-dihydroisoquinoline-7-carboxamide], 94.8%.
For the molecule `O=C(NO)c1ccc2cc[nH]c(=O)c2c1` [Compound I-232, N-hydroxy-1-oxo-1,2-dihydroisoquinoline-7-carboxamide], the inhibition at 0.412 µM was determined as 70.9%.
With `O=C(NO)c1ccc2c(=O)[nH]c(COc3ccccc3-n3cccc3)nc2c1` [Compound I-233, N-hydroxy-4-oxo-2-{[2-(1H-pyrrol-1-yl)phenoxy]methyl}-3,4-dihydroquinazoline-7-carboxamide], the inhibition at 0.412 µM came out at 91.1%.
On to `Cc1nn(-c2ccccc2)nc1Cn1ccc2ccc(C(=O)NO)cc2c1=O` [Compound I-234, N-hydroxy-2-[(5-methyl-2-phenyl-2H-1,2,3-triazol-4-yl)methyl]-1-oxo-1,2-dihydroisoquinoline-7-carboxamide], for which the inhibition at 0.412 µM came out at 98.6%.
Same read-out and setting: with `O=C(NO)c1ccc2ccn(CCCOc3ccc(Oc4ccccc4)cc3)c(=O)c2c1` [Compound I-235, N-hydroxy-1-oxo-2-[3-(4-phenoxyphenoxy)propyl]-1,2-dihydroisoquinoline-7-carboxamide] the figure was 87.5%; with `O=C(NO)c1ccc2ccn(CCc3ccc(Cl)cc3)c(=O)c2c1` [Compound I-236, 2-[2-(4-chlorophenyl)ethyl]-N-hydroxy-1-oxo-1,2-dihydroisoquinoline-7-carboxamide], 96.2%.
For `O=C(NO)c1ccc2c(=O)n(Cc3ccccc3)c(NCc3ccc(Cl)cc3)nc2c1` [Compound I-238, 3-benzyl-2-[(4-chlorobenzyl)amino]-N-hydroxy-4-oxo-3,4-dihydroquinazoline-7-carboxamide], the inhibition at 0.412 µM is 86.2%.
The same measure, in the same setting: as for `O=C(NO)c1ccc2ncn(CCCc3ccccc3)c(=O)c2c1` [Compound I-239, N-hydroxy-4-oxo-3-(3-phenylpropyl)-3,4-dihydroquinazoline-6-carboxamide], the figure is 93.8%; as for `COc1ccccc1OCCCn1ccc2ccc(C(=O)NO)cc2c1=O` [Compound I-240, N-hydroxy-2-[3-(2-methoxyphenoxy)propyl]-1-oxo-1,2-dihydroisoquinoline-7-carboxamide], 96%.
As for `CC(C)(C)OC(=O)N1CCC(NC(=O)c2nc3cc(C(=O)NO)ccc3c(=O)[nH]2)CC1` [Compound I-241, tert-butyl 4-[({7-[(hydroxyamino)carbonyl]-4-oxo-3,4-dihydroquinazolin-2-yl}carbonyl)amino]piperidine-1-carboxylate], the inhibition at 0.412 µM worked out at 29.8%.
The same measure, in the same setting: with `Cn1cnc2cc(C(=O)NO)ccc2c1=O` [Compound I-242, N-hydroxy-3-methyl-4-oxo-3,4-dihydroquinazoline-7-carboxamide] the figure was 68.8%; with `Cn1c(NCCc2ccc(Cl)cc2)nc2ccc(C(=O)NO)cc2c1=O` [Compound I-243, 2-{[2-(4-chlorophenyl)ethyl]amino}-N-hydroxy-3-methyl-4-oxo-3,4-dihydroquinazoline-6-carboxamide], 60.8%.
Same read-out and setting: as for `O=C(NO)c1ccc2ccn(CCOc3ccc(Cl)cc3)c(=O)c2c1` [Compound I-246, 2-[2-(4-chlorophenoxy)ethyl]-N-hydroxy-1-oxo-1,2-dihydroisoquinoline-7-carboxamide], the figure is 97.7%.
Still for that read-out and setting: with `COc1ccccc1OCc1nc2cc(C(=O)NO)ccc2c(=O)[nH]1` [Compound I-248, N-hydroxy-2-[(2-methoxyphenoxy)methyl]-4-oxo-3,4-dihydroquinazoline-7-carboxamide] the figure was 90%.
Regarding `CS(=O)(=O)c1ccccc1OCc1nc2cc(C(=O)NO)ccc2c(=O)[nH]1` [Compound I-249, N-hydroxy-2-{[2-(methylsulfonyl)phenoxy]methyl}-4-oxo-3,4-dihydroquinazoline-7-carboxamide], the inhibition at 0.412 µM is 56.5%.
Same read-out and setting: as for `NC(=O)CCn1ccc2ccc(C(=O)NO)cc2c1=O` [Compound I-250, 2-(3-amino-3-oxopropyl)-N-hydroxy-1-oxo-1,2-dihydroisoquinoline-7-carboxamide], the figure is 77%; as for `O=C(NO)c1ccc2ccn(CCc3cccc4ccccc34)c(=O)c2c1` [Compound I-251, N-hydroxy-2-[2-(1-naphthyl)ethyl]-1-oxo-1,2-dihydroisoquinoline-7-carboxamide], 96.6%; as for `O=C(NO)c1ccc2ccn(CCOc3ccccc3)c(=O)c2c1` [Compound I-252, N-hydroxy-1-oxo-2-(2-phenoxyethyl)-1,2-dihydroisoquinoline-7-carboxamide], 97.6%.
Consider `O=C(NO)c1ccc2ccn(CCN(Cc3cccc(C(F)(F)F)c3)Cc3cccc(C(F)(F)F)c3)c(=O)c2c1` [Compound I-253, 2-(2-{bis[3-(trifluoromethyl)benzyl]amino}ethyl)-N-hydroxy-1-oxo-1,2-dihydroisoquinoline-7-carboxamide], for which the inhibition at 0.412 µM turned out to be 57.5%.
Same read-out and setting: with `CCC(C)Cn1ccc2ccc(C(=O)NO)cc2c1=O` (centres unmarked) [Compound I-255, N-hydroxy-2-(2-methylbutyl)-1-oxo-1,2-dihydroisoquinoline-7-carboxamide] the figure was 85.6%; with `CC(C)n1cnc2cc(C(=O)NO)ccc2c1=O` [Compound I-256, N-hydroxy-3-isopropyl-4-oxo-3,4-dihydroquinazoline-7-carboxamide], 72%.

(Values after patent publication US8765773B2, “Substituted hydroxamic acids and uses thereof” (Millennium Pharmaceuticals, Inc., priority 2010, dated 2014).)
